Experimental data: patent publication US20240398781A1, “SPIROCYCLIC CYCLIC MODULATORS OF CHOLESTEROL BIOSYNTHESIS AND THEIR USE FOR PROMOTING REMYELINATION” (GENENTECH, INC., priority 2021, published 2024)

What was measured:
[1] = test system: EBP (zymostenol accumulation in EpiSC-derived OPCs); assay: GC/MS-based sterol profiling, zymostenol accumulation in OPCs; type: cell-based, mouse; settings: Mus musculus, 24 h, EpiSC-derived OPCs, 24 hr treatment, 8 doses from 0.15 nM to 333 nM; read-out: Zymostenol GCMS EC50
Method in brief: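 EpiSC-derived OPCs (100,000/well) were treated 24 h in N2B27 without growth factors. Sterols were TMS-derivatized and analysed by GC/MS full-scan EI, quantified against cholesterol-d7. Zymostenol was normalized to the level after 24 h with 100 nM positive control reference.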

human EBP = human EBP (Homo sapiens (Human), UniProt Q15125); assay: Competition binding assay (SPA, [3H]-Ifenprodil) to determine compound affinity to EBP; settings: [3H]-Ifenprodil 10 nM, HEK293 membrane overexpressing human EBP, Ki=IC50/(1+[L]/Kd); read-out: hEBP SPA Ki
human EBP, sequence (Q15125 whole entry): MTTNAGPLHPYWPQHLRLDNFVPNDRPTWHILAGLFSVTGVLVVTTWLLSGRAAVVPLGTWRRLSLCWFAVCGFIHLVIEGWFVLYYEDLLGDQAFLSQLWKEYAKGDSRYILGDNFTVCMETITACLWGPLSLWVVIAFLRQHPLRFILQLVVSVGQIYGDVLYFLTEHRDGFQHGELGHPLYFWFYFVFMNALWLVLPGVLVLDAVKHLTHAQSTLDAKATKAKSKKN
Method in brief: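 Membranes from HEK293 cells overexpressing human EBP, on SPA beads (0.3 mg beads, 5 µg membrane/well) in Tris/MgCl2/EDTA buffer pH 7.5 with 0.01% BSA and 0.1% DMSO, competed against [3H]-ifenprodil for 3 h to equilibrium. Compounds were tested at 1 µM single dose or 0.06 nM–5 µM; IC50 came from nonlinear fit, and Ki=IC50/(1+[L]/Kd).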

Structure (SMILES)	EC50 [1] [nM]	Ki (human EBP) [nM]
CC(C)n1nc(C2CC2)nc1[C@H]1CC[C@H](N2CCC3(C2)CS(=O)(=O)C3)C1 (single isomer, unassigned) [18B*, 6-(3-(3-cyclopropyl-1-isopropyl-1H-1,2,4-triazol-5-yl)cyclopentyl)-2-thia-6-azaspiro[3.4]octane 2,2-dioxide]	200	210
O=S1(=O)CC2(CCN([C@H]3CC[C@H](c4ccc(C(F)(F)F)nc4)CC3)C2)C1 [Compound 14A, 6-((1r,4r)-4-(6-(Trifluoromethyl)pyridin-3-yl)cyclohexyl)-2-thia-6-azaspiro[3.4]octane 2,2-dioxide]	11	35
CC(C)n1nc(C(F)(F)F)cc1[C@@H]1CC[C@H](N2CCC3(C2)CS(=O)(=O)C3)C1 (single isomer, unassigned) [10C*]	3	29
O=S1(=O)CC2(CCN([C@@H]3CO[C@@H](c4ccc(C(F)(F)F)cc4)C3)C2)C1 (stereo in doubt) [19B*, 6-((3S,5R)-5-(4-(trifluoromethyl)phenyl)tetrahydrofuran-3-yl)-2-thia-6-azaspiro[3.4]octane 2,2-dioxide]	10	27
O=S1(=O)CC2(CCN([C@H]3CC[C@H](c4cc(C(F)(F)F)n(C5CCC5)n4)CC3)C2)C1 [Compound 24, 6-((1r,4r)-4-(1-cyclobutyl-5-(trifluoromethyl)-1H-pyrazol-3-yl)cyclohexyl)-2-thia-6-azaspiro[3.4]octane 2,2-dioxide]	3	28
O=S1(=O)CC2(CCN([C@H]3CC[C@H](c4cc(C(F)(F)F)nn4C4CC4)CC3)C2)C1 [Compound 12A, 6-((1r,4r)-4-(1-Cyclopropyl-3-(trifluoromethyl)-1H-pyrazol-5-yl)cyclohexyl)-2-thia-6-azaspiro[3.4]octane 2,2-dioxide]	11	28
Cn1nc(C(F)(F)F)cc1[C@H]1CC[C@H](N2CCC3(CC2)CS(=O)(=O)C3)CC1 [Compound 25B, 7-((1r,4r)-4-(1-methyl-3-(trifluoromethyl)-1H-pyrazol-5-yl)cyclohexyl)-2-thia-7-azaspiro[3.5]nonane 2,2-dioxide]	26	58
CC(C)n1nc(-c2cncc(C(F)(F)F)c2)cc1[C@@H]1CC[C@H](N2CCC3(C2)CS(=O)(=O)C3)C1 (single isomer, unassigned) [13B*]	0.9	25
O=S1(=O)CC2(CCN([C@H]3CC[C@H](c4cc(C(F)(F)F)nn4C4CC4)CC3)CC2)C1 [Compound 40B, 7-((1s,4s)-4-(1-cyclopropyl-3-(trifluoromethyl)-1H-pyrazol-5-yl)cyclohexyl)-2-thia-7-azaspiro[3.5]nonane 2,2-dioxide]	17	47
Cc1cc(C(F)(F)F)ncc1[C@H]1CC[C@H](N2CCC3(C2)CS(=O)(=O)C3)CC1 [Compound 21B, 6-((1r,4r)-4-(4-Methyl-6-(trifluoromethyl)pyridin-3-yl)cyclohexyl)-2-thia-6-azaspiro[3.4]octane 2,2-dioxide]	50	48
O=S1(=O)CC2(CCN(C3CCN(c4ccc(C(F)(F)F)nc4)CC3)C2)C1 [Compound 5, 6-(1-(6-(trifluoromethyl)pyridin-3-yl)piperidin-4-yl)-2-thia-6-azaspiro[3.4]octane 2,2-dioxide]	50	67
Cn1nc(C(F)(F)F)cc1[C@H]1CC[C@H](N2CCC3(C2)CS(=O)(=O)C3)CC1 [Compound 2B, 6-((1r,4r)-4-(1-methyl-3-(trifluoromethyl)-1H-pyrazol-5-yl)cyclohexyl)-2-thia-6-azaspiro[3.4]octane 2,2-dioxide]	12	20
O=S1(=O)CC2(CCN([C@H]3CC[C@@H](c4cc(C(F)(F)F)nn4C4CCC4)CC3)C2)C1 [Compound 23A, 6-((1s,4s)-4-(1-Cyclobutyl-3-(trifluoromethyl)-1H-pyrazol-5-yl)cyclohexyl)-2-thia-6-azaspiro[3.4]octane 2,2-dioxide]	31	26
